Consider 1 compound from patent US20230346995A1, “USE OF ELECTRIC CURRENT OR FIELD TO MANAGE RISK OF INFECTION BY ANTIMICROBIAL-RESISTANT MICROORGANISMS” (THE TRUSTEES OF INDIANA UNIVERSITY, priority 2020, published 2023).

Type in all cases: cell-based
For assay [1], the system named is ketoconazole-resistant Candida albicans ATCC 64124. In words: Efflux pump activity by Nile Red accumulation assay. The following applies: within 30 min to 3 h of treatment; flow cytometry. On the procedure: Three technical replicates were assayed for each experimental group; six biological replicates.
For assay [2] the test system is unchanged. In words: Planktonic growth, absorbance at 600 nm. The following applies: YPD broth; ketoconazole 100 μg/ml; versus control. As for the experimental part: ATCC strain 64124 was maintained at 4° C. on yeast extract peptone dextrose (YPD) (BD™ Difco™) agar plates. Planktonic yeast cultures (seed inoculums) were initiated in 5 ml of YPD broth (BD™ Difco™) from a single colony of the yeast strain. Cells were incubated at 28° C., under shaker conditions (200 rpm) for 24 h, followed by initiation of master inoculums for respective experiments in 5 ml YPD broth (OD600nm ˜0.15). Yeast cells were incubated at 27° C. for all assays, except for hyphal transition experiments. For all assays, ketoconazole (Sigma Aldrich) was used at a final concentration of 100 μg/ml (dissolved in 100% methanol, stored at −20° C.).
The FDA-approved wireless electroceutical dressing (WED) Procellera (Ag—Zn dressing) (Vomaris Innovations Inc.) was the source of electric fields for treating C. albicans cells. This dressing has alternating circular regions of silver and zinc dots placed in proximity of 1 mm to each other generating electric fields in the range of 0.6-0.9 V (Banerjee et al., 2014; Banerjee et al., 2015). […] The effect of wound dressings on planktonic growth was assessed by culturing C. albicans in sterile 15 ml round bottom polypropylene tubes with 5 ml YPD broth in the presence of dressings. […] Post incubation for respective time intervals, 1 ml aliquots were taken from all groups and optical density (absorbance) was measured on a spectrophotometer at 600 nm.

Assay [3] has the same test system. In words: Ultrastructure analysis (TEM) for cell wall thickness. The following applies: after 24 h; compared to control cells. As for the experimental part:
Ultrastructure analysis was performed as follows. After 24 h of respective treatments in YPD broth, C. albicans cells were initially fixed overnight with 500 μl 3% glutaraldehyde/0.1 M phosphate buffer; the fixative was changed to same fixative with 0.15% tannic acid for one hour. After three rinses in buffer, the specimens were post-fixed with 1% osmium tetroxide/0.1 M phosphate buffer for one hour and then rinsed multiple times with distilled water, before en bloc staining with 1% uranyl acetate in distilled water for one hour. After multiple rinses in distilled water, standard dehydration followed through a range of 70-100% ethanol, then infiltration with acetone, to 50:50 acetone and embedding resin for 48 hours. Specimens were then embedded with 100% resin (Embed 812, Electron Microscopy Sciences, Hatfield, PA) and polymerized overnight. Sections were cut, 80-85 nm and placed on copper mesh grids and viewed on Transmission Electron Microscope (TEM) (ThermoFisher, Tecnai Spirit, Hillsoboro OR) and images taken with CCD camera (Advanced Microscopy Techniques Danvers MA). Analysis of cell wall thickness was done with TEM images using ImageJ software.

Assay [4] shares this test system. In words: Metabolic state by FUN1 staining. The following applies: in words.
Protocol: (§1) An agar lawn assay assessed fungicidal activity. Dressings (2′×2′) were moistened with sterile YPD broth and placed in empty Petri plates with the conducting side of the dressing facing up. One milliliter of log phase C. albicans cells (1×10^8 cells) was thoroughly mixed in sterile molten YPD agar (9 ml) and poured evenly in plates with dressings. […] Plate images were captured and the area of growth inhibition in these plates was calculated with ImageJ software. Metabolic state was assessed by FUN1 staining. […] Post treatments with electroceutical dressings, an aliquot of yeast cells (1×10^8) was taken and washed with 1 ml of 1X PBS followed by treatment with 100 μl FUN®1 (1:1000; freshly diluted in 1X PBS) for 40 min in dark condition. Cells were then washed once with 1 ml of 1X PBS followed by counter staining with 100 μl Calcofluor White (25 μg/ml) for 10 min in dark conditions. Post counter staining cells were again washed with 1 ml 1X PBS, an aliquot of cells was trapped between a cover glass and glass slide and observed at 63X. Images captured at this magnification were analyzed using ZEN blue software to calculate the ratio of red and green fluorescence intensities for two regions of interest (ROI) per image (10 ROIs per group per technical replicate). Three technical replicates were assayed for each experimental group; six biological replicates.
The test system is the same in assay [5]. In words: Cell membrane potential changes, DiBAC4(3)/PI staining, flow cytometry. The following applies: in words; flow cytometry and microscopy. On the technique in general: A flow cytometer gives signals particle by particle.
Assay [6] has the same test system. In words: Semi-quantitative analysis of cell wall carbohydrates chitin, beta glucan, mannan. The following applies: 24 h treatment. On the procedure: Semi-quantitative analysis was performed for cell wall carbohydrates chitin, beta glucan, and mannan. After 24 h treatment, with dressings alone or in combination with ketoconazole, 1 ml yeast cells were washed once with 1 ml 1X PBS followed by chitin staining with Calcofluor White (Sigma Aldrich) (25 μg/ml) for 10 min; beta glucan staining with Aniline Blue (Anaspec) (0.05%) for 15 min; mannan staining with Concanavalin A-Texas Red conjugate (Life Technologies) (25 μg/ml) for 40 min. All stainings were performed under dark condition. Post-staining, cells were washed once with 1 ml 1X PBS and observed under 63X magnification. Microscopic images were used for measuring fluorescence intensities using ZEN blue software.

For assay [7] the test system is unchanged. Nature of the assay: In vitro yeast to hyphae transition assay. The following applies: after 2 h incubation in hyphae-inducing medium. On the procedure:
Transition of C. albicans from yeast form to hyphal form was studied with hyphae inducing conditions (YPD broth with 10% fetal bovine serum and incubation at 37° C., static condition). Cells were cultured in 5 ml hyphae-inducing medium, with or without dressings or ketoconazole. An aliquot of cells (1 ml) was taken from all treatment groups at 6 h and 24 h. Hyphal induction and elongation was monitored microscopically (63X) and imaged at 6 h and 24 h. For hyphal length measurements, aliquots were taken after 2 h in hyphae-inducing medium and images were captured at 20X magnification. Hyphal lengths were measured from these images using Accuview software (50 measurements per experimental group, six biological replicates).

The test system is the same in assay [8]. In words: Agar lawn assay with embedded dressings. The following applies: in words.
Protocol: as §1

On to `CC(=O)N1CCN(c2ccc(OCC3COC(Cn4ccnc4)(c4ccc(Cl)cc4Cl)O3)cc2)CC1` (centres unmarked) [ketoconazole], for which, in assay [1], the “Nile red accumulation / efflux pump activity” value is reported as “increased efflux pump activity”. In addition, the “planktonic growth measured by absorbance at 600 nm” value in assay [2] was “almost equivalent”. In assay [3], the “change in cell wall thickness” value was “thick cell walls”. In addition, the “FUN1 staining outcome (metabolic state, plasma membrane integrity)” value in assay [4] is “distinct intravacuolar structures”. Also, the “effect on cell membrane depolarization / damage” value in assay [5] is on record as “did not have any acute or prolonged effect”. In addition, the “chitin content (Calcofluor white staining)” value in assay [6] is on record as “increased chitin staining profile”. The hyphal length measurements entry in assay [7] was “pseudohyphae formed”. Moreover, the “yeast growth in agar lawn assay” value in assay [8] is recorded as “reduction in growth”.
